Data from paper PMC7282810, “Existence and functions of a kisspeptin neuropeptide signaling system in a non-chordate deuterostome species” (eLife, 2020).
“Also recorded” adds a separate entry of the source. Read-outs that look alike come from different tables or passages of the source. Where a SMILES comes first, the peptide text is derived from it. Bridges are numbered along the chain shown (N, C = ends).

How the values were obtained:
AjKissR2 [1] = biological target: T1, AjKissR2 (Apostichopus japonicus, UniProt A0A5B7LIE4); assay: cell-based; format: cell-based; conditions: for AUC: Ca2+ trace area under curve, HEK293/AjKissR2
T1 sequence (A0A5B7LIE4 1-327): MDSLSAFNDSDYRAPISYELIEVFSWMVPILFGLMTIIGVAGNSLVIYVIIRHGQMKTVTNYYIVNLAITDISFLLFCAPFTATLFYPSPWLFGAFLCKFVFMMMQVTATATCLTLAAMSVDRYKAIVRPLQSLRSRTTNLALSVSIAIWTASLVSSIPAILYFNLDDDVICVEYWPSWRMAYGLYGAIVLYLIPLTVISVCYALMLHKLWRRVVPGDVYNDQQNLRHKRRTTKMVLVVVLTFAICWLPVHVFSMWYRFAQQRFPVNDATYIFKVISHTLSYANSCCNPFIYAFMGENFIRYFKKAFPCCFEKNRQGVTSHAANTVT
Method: (§1) The fluorescent Ca^2+ indicator Fura-2/AM was used to detect intracellular calcium flux ([Li et al., 2010]). Briefly, the HEK293 cells expressing the AjKissR1, AjKissR2 or vertebrate kisspeptin receptor were washed twice with PBS and suspended at 5 × 10^6 cells/mL in Hanks’ balanced salt solution. The cells were then loaded with 3.0 μM Fura-2/AM for 30 min and washed twice in Hanks’ solution. They were then stimulated with the indicated concentrations of different predicted A. japonicus kisspeptins or vertebrate kisspeptins. Finally, intracellular calcium flux was measured for 60 s, by determining the ratio of excitation wavelengths at 340 and 380 nm using a fluorescence spectrometer (Infinite 200 PRO, Tecan, Männedorf, Switzerland). All of the experiments for measuring Ca^2+ mobilization were repeated independently at least three times.

AjKissR1 [2] = biological target: T2, AjKissR1 (Apostichopus japonicus, UniProt A0A5B7LK60); assay: cell-based; format: cell-based
T2 sequence (A0A5B7LK60 1-378): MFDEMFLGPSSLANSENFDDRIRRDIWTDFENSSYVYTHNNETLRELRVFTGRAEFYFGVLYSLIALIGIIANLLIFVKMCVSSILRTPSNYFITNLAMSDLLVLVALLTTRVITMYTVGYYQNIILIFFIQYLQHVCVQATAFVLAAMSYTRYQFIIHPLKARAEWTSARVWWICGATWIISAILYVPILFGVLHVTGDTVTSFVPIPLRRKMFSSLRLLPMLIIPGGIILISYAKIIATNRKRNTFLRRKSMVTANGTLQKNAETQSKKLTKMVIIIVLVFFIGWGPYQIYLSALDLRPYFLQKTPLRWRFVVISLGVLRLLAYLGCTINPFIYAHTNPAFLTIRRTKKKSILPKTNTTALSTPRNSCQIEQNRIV
Method: as §1

[3] = system: zebrafish kisspeptin receptor DrKiss1Ra; assay: Intracellular Ca2+ mobilization (Fura-2/AM) in DrKiss1Ra-expressing HEK293 cells; format: cell-based; conditions: 1.0 μM peptide, HEK293, Fura-2/AM
Method: as §1

AjKissR2 [4] = biological target: T1, AjKissR2; format: cell-based; conditions: Ca2+ trace (Fura-2/AM) area under curve, AjKiss1a at Log[M] -10 (100 pM), HEK293/AjKissR2, 68 s trace
AjKissR2 [5] = biological target: T1, AjKissR2; assay: Ligand competition binding assay (FITC-AjKiss1a, FACS), HEK293/AjKissR2; conditions: 1.0 μM FITC-AjKiss1a, read-out: IC50 (competitive displacement of FITC-AjKiss1a)
Method: (§2) A fluorescence-activated cell sorter (FACS) was used to detect the binding ability of kisspeptins with AjKissR1 or AjKissR2. HEK293 cells expressing FLAG–AjKissR1 or FLAG–AjKissR2 were washed with PBS that contained 0.2% bovine serum albumin (FACS buffer). We designed and synthesized an N-terminal FITC-labeled AjKiss1a peptide (see 'Key resources table'). Different kisspeptins were diluted in the FACS buffer to different concentrations, then added to cells that were incubated on ice for 60–90 min. Cells were washed thrice with the FACS buffer and re-suspended in the FACS buffer with 1% paraformaldehyde for 15 min. The binding activity of the indicated kisspeptin peptides with AjKissR1 or AjKissR2 was determined by measuring the fluorescence of FITC and was presented as a percentage of total binding.

[6] = system: zebrafish kisspeptin receptor DrKiss1Rb; assay: Intracellular Ca2+ mobilization (Fura-2/AM) in DrKiss1Rb-expressing HEK293 cells; format: cell-based; conditions: 1.0 μM peptide, HEK293, Fura-2/AM
Method: as §1

AjKissR1 [7] = biological target: T2, AjKissR1; assay: Ligand competition binding assay (FITC-AjKiss1a, FACS), HEK293/AjKissR1; conditions: 1.0 μM FITC-AjKiss1a, read-out: IC50 (competitive displacement of FITC-AjKiss1a)
Method: as §2

AjKissR2-EGFP = assay: Receptor internalization (translocation) by confocal microscopy, AjKissR2-EGFP; format: cell-based, Apostichopus japonicus; conditions: 1.0 μM ligand, 60 min
Method: For receptor-surface expression analysis, HEK293 cells expressing AjKissR1/2-EGFP were seeded onto glass coverslips in 12-well plates, coated with 0.1 mg/mL poly-L-lysine, and allowed to attach overnight under normal growth conditions ([Li et al., 2010]). The cells were washed three times with PBS and further stained with the membrane probe DiI (Beyotime) at 37°C for 5–10 min, fixed with 4% paraformaldehyde for 10 min, and then incubated with DAPI (Beyotime) for 5–10 min. For the translocation assays, the receptor-expressing cells were treated with 1.0 μM of various stimuli for 60 min, washed three times with PBS and then fixed with 4% paraformaldehyde in PBS for 10 min at room temperature. Finally, the cells were mounted in mounting reagent (DTT/PBS/glycerol, 1:8:2) and visualized by fluorescence microscopy on a Zeiss laser scanning confocal microscope, which was attached to a Zeiss Axiovert 200 microscope and linked to an LSM5 computer system.

[8] = system: human kisspeptin receptor (HsKiss1R); assay: Intracellular Ca2+ mobilization (Fura-2/AM) in HsKiss1R-expressing HEK293 cells; format: cell-based; conditions: 1.0 μM peptide, HEK293, Fura-2/AM
Method: as §1

[9] = log(agonist) vs. response (three parameters) fit of AUC, AjKiss1a on AjKissR2, 5 points
[10] = fit of AUC vs Log[AjKiss1a]M, source data Figure 3B1

## CC(C)C[C@H](NC(=O)[C@H](CO)NC(=O)CNC(=O)[C@H](C)N)C(=O)N[C@@H](CC(=O)O)C(=O)N[C@H]1CSSC[C@@H](C(=O)N[C@@H](CCC(=O)O)C(=O)N[C@@H](CC(=O)O)C(=O)N[C@H](C(=O)N[C@@H](CCC(=O)O)C(=O)N[C@@H](CCCNC(=N)N)C(=O)N[C@@H](CCCNC(=N)N)C(=O)NCC(=O)N[C@@H](CCCNC(=N)N)C(=O)N[C@@H](CCC(N)=O)C(=O)N2CCC[C@H]2C(=O)N[C@@H](CC(N)=O)C(=O)N[C@@H](CCCNC(=N)N)C(=O)N[C@@H](CC(N)=O)C(=O)N[C@@H](C)C(=O)N[C@@H](Cc2c[nH]cn2)C(=O)N[C@@H](Cc2ccc(O)cc2)C(=O)N[C@@H](CCCNC(=N)N)C(=O)N[C@H](C(=O)N[C@@H](CC(C)C)C(=O)N2CCC[C@H]2C(=O)N[C@@H](Cc2ccccc2)C(N)=O)[C@@H](C)O)C(C)C)NC(=O)[C@H](CO)NC(=O)[C@H](C)NC(=O)[C@H](CCC(=O)O)NC(=O)[C@H](CC(C)C)NC1=O [AjKiss1a] (H-AGSLDCLEASCEDVERRGRQPNRNAHYRTLPF-NH2; disulfide 6-11)
AjKissR2 [1]
  EC50: 1.98 nM
AjKissR2 [1]; AjKiss1a at Log[M] -6 (1 μM)
  AUC: 24.14
AjKissR2 [1]; AjKiss1a at Log[M] -7 (100 nM)
  AUC: 24.83
AjKissR2 [1]; AjKiss1a at Log[M] -8 (10 nM)
  AUC: 24.2
AjKissR2 [1]; AjKiss1a at Log[M] -9 (1 nM)
  AUC: 11.14
AjKissR2 [1]; [9]
  Bottom (best-fit value): 6.057
  Span (best-fit value): 19.28
  Top (best-fit value): 25.34
AjKissR2 [1]; log(agonist) vs. response (three parameters) fit of AUC, Log[AjKiss1a]M, AjKissR2, 5 points
  LogEC50 (best-fit value): -8.703
AjKissR1 [2]
  EC50: 80.8 nM
AjKissR1 [2]; Log[AjKiss1a]M -6
  AUC (Ca2+ mobilization): 18.82
AjKissR1 [2]; Log[AjKiss1a]M -7
  AUC (Ca2+ mobilization): 12.93
AjKissR1 [2]; Log[AjKiss1a]M -8
  AUC (Ca2+ mobilization): 8.793
AjKissR1 [2]; Log[AjKiss1a]M -9
  AUC (Ca2+ mobilization): 6.715
AjKissR1 [2]; Log[AjKiss1a]M -10
  AUC (Ca2+ mobilization): 4.474
AjKissR1 [2]; [10]
  Bottom (best-fit value): 5.962
  LogEC50 (best-fit value): -7.093
  Span (best-fit value): 13.69
  Top (best-fit value): 19.65
[3]
  Activation of DrKiss1Ra, Ca2+ mobilization (in words): could activate; also recorded: could potentiate
AjKissR2 [4]
  AUC: 7.592
AjKissR2 [5]
  IC50: 95.2 nM
[6]
  Activation of DrKiss1Rb, Ca2+ mobilization (in words): could activate; also recorded: could potentiate
AjKissR1 [7]
  IC50: 568 nM
AjKissR2-EGFP
  Internalization of AjKissR2-EGFP from the plasma membrane to the cytoplasm (in words): significant internalization
[8]
  Activation of HsKiss1R, Ca2+ mobilization (in words): could activate; also recorded: could potentiate
